In one series the test system is HepG2 cells. Description: Wound-healing scratch assay, HepG2. It counts as cell-based. The settings on record: 24-hour.
For series [1], the system named is human, ligand-gated TRP channels. Nature of the series: TRP channel panel screen, activation. The class given is cell-based. The conditions noted are these: TRPV, TRPC, TRPM, TRPA panel.
A further series deals with NCI-60 cancer cell lines. Description: NCI-60 Human Tumor Cell Lines Screen. The class given is cell-based. The settings on record: Gl50 and IC50 -z scores; five concentrations. The protocol:
Piperlongumine was submitted to the NCI-60 Human Tumor Cell Lines Screen and its activity was measured at five concentration levels (0.01, 0.1, 1, 10 and 100 μM) in 59 NCI-60 cell lines with four dose response parameters (Gl50, IC50, LC50 and TGI). The TRPV2 normalized gene expression (averaged probe intensities combined from five microarray platforms) in NCI-60 cell lines was downloaded from the CellMiner database ^36,37. The Spearman correlation was used to test the interdependence between TRPV2 expression levels and piperlongumine IC50 values against 57 cancer cell lines.

Another series has as its system chiru TRPV2 orthologue. Description: Isothermal titration calorimetry, chiru TRPV2. The settings on record: chiru TRPV2 constructs; 100 μM. The class given is binding. Background: In ITC the heat of successive injections is recorded.
The subject of the next series is Huh-7. Description: Wound-healing scratch assay, Huh-7. The class given is cell-based.
For another series, the target named is TRPA1 (Homo sapiens, UniProt O75762). Nature of the series: Fluorescence cell-based assay, TRPA1. The settings on record: calcium 5 dye, spread in log units, duplicate. How it is done:
(§1) The assays were performed at SB Discovery (Glasgow, UK) on a fee-for-service basis. Human TRP cells were trypsinised, counted and seeded in black, clear-bottomed 96 well plates at a density of 50,000 cells per well in 100 μL volume and incubated overnight. Next day, the cells were loaded with calcium 5 dye or membrane potential dye. TRPV1-5, TRPA1, TRPM2, TRPM3, and TRPM8 were tested using the calcium 5 dye. TRPC1, TRPC3-7, and TRPM4-5 were tested using the membrane potential dye. Both dye solutions were made up in HEPES buffered Hank's balanced salt solution (HBSS). Dye solution (90 μL) was added to the wells and incubated at 37° C. for 1 hour. Test compounds and standard inhibitors (10 μL) were then added to the wells and incubated at room temperature for 10 minutes. The plates were then placed in the flexstation and fluorescence monitored every 1.52 seconds. After 20 seconds agonist was added and the fluorescence monitored for 2 minutes at 485 nm/525 nm and 530 nm/565 nm, Ex/Em, for the calcium 5 dye and the membrane potential dye respectively. Controls-TRPV1: capsazepine; TRPV2: tranilast; TRPV3: ruthenium red; TRPV4: ruthenium red; TRPV5: Gd^3+; TRPA1, ruthenium red; TRPC1: Gd^3+; TRPC3: Pyr3; TRPC4: ML 204; TRPC5: ML 204; TRPC6: ML 204; TRPC7: SKF 96365; TRPM2: 2-APB; TRPM3: Mef acid; TRPM4: clotrimazole; TRPM5: TPPO; TRPM8: 2-APB. […]

Another series has as its target TRPC6 (Homo sapiens, UniProt Q9Y210). Description: Fluorescence cell-based assay, TRPC6. The conditions noted are these: membrane potential dye, duplicate. The protocol: as §1
The nature of series [2]: Dynamic light scattering, colloidal aggregation. The conditions noted are these: water, 25° C. It counts as physicochemical. How it is done: Dynamic light scattering (Zetasizer Nano S, Malvern, UK) was used to determine compound colloidal aggregation. The particle sizes were measured at 25° C. Water solubility was measured as described elsewhere with successive measurements within 60 minutes.^35 A 100 mM stock solution of piperlongumine was prepared in DMSO, following dilution to deionized water to obtain an analyte solution of 100 μM (0.1% DMSO). Colloidal aggregation was measured through sequential dilutions.

“Also recorded” adds a separate entry of the source.

Sequence of TRPA1 (O75762 whole entry): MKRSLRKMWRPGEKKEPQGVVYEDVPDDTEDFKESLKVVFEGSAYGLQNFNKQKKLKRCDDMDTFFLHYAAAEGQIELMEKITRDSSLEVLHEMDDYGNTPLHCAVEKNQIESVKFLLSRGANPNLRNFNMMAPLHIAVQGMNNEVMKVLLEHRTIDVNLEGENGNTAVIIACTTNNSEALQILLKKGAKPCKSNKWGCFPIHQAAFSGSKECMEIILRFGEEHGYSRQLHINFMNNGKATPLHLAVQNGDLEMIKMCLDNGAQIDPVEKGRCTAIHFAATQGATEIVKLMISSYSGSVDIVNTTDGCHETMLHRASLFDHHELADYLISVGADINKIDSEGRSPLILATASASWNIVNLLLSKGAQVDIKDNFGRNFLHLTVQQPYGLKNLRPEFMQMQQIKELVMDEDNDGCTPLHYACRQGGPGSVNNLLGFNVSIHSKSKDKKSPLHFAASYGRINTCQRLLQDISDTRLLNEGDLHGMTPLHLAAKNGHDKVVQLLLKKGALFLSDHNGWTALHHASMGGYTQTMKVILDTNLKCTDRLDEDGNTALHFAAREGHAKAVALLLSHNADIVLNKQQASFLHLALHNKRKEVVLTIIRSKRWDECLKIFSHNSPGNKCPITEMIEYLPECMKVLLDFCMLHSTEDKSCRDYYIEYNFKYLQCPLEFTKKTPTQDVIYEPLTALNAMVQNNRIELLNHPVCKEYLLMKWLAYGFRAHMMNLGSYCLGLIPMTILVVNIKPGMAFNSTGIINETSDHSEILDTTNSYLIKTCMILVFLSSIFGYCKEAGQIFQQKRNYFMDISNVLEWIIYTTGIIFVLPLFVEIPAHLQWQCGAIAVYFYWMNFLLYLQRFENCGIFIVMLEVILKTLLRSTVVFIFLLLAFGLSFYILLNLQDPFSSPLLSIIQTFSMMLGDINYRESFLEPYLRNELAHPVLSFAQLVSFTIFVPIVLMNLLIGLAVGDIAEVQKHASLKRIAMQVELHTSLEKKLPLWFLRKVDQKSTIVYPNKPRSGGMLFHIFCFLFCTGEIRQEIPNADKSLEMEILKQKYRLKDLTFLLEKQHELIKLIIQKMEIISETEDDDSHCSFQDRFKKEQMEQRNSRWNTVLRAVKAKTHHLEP
Sequence of TRPC6 (Q9Y210 whole entry): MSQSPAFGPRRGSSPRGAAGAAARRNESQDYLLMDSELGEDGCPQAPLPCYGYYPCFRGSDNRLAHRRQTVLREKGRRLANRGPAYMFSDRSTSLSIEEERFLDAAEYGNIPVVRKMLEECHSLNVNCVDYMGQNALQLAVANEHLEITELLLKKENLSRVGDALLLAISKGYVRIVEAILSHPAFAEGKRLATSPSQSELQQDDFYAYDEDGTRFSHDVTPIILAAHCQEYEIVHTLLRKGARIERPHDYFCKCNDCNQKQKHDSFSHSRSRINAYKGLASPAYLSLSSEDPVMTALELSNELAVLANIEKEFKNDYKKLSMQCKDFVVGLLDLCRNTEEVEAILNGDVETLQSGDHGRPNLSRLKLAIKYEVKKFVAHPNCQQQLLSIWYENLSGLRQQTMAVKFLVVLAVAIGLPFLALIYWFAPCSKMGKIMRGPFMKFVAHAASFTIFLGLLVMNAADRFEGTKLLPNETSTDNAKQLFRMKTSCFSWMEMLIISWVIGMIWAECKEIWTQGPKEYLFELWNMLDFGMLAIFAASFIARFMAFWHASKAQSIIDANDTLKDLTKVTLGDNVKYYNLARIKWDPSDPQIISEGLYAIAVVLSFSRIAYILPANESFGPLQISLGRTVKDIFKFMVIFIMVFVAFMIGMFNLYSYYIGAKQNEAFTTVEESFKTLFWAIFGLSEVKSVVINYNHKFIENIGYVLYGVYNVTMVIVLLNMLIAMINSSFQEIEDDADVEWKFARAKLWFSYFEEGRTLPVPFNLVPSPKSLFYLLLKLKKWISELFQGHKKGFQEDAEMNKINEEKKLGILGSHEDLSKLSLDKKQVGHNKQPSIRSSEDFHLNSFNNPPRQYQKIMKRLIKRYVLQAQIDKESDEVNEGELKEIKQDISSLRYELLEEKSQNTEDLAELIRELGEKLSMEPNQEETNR

Usually IC50 stands for the concentration needed to halve the response being measured. Consider `COc1cc(/C=C/C(=O)N2CCC=CC2=O)cc(OC)c1OC` [Compound 1, piperlongumine], for which the “Cell death during wound-healing assay” value with HepG2 cells (5 μM) is listed as “did not induce significant cell death”. For the same compound, the results for the “Cell migration, wound healing” value with HepG2 cells (1 at 5 μM) and in the series on Huh-7 were “significantly reduced migration; also recorded: inhibits cancer cell migration in a Ca^2+-dependent manner” and “reproducible”, respectively. Besides, the “Activation of the assayed TRP channels” value in series [1] is “did not activate any of the assayed channels”. The “Anti-proliferative activity across NCI-60, most sensitive tissues” value with NCI-60 cancer cell lines is “blood, colon and skin cancer cell lines were found to be the most sensitive”. In addition, the “Binding by isothermal titration calorimetry” value in the series with chiru TRPV2 orthologue was “did not bind”. Moreover, the IC50 on TRPA1 is 39 ± 0.15 µM; against TRPC6 it was above 100 µM. The “Colloidal aggregation (dynamic light scattering)” value in series [2] is given as “absence of colloidal aggregate-induced inhibition”.

These data come from US11273152B2, “TRPV2 antagonists” (Instituto de Medicina Molecular João Lobo Antunes, priority 2017, dated 2022).
